Laboratory results published in paper PMC5352051, “Identification of a novel Polo-like kinase 1 inhibitor that specifically blocks the functions of Polo-Box domain” (Oncotarget, 2016).

How the values were obtained:
[1] = test system: Plk1, Cyclin B1 and pHH-3 in HeLa cells; test: Western blot of mitotic markers; type: cell-based, human; conditions: synchronized HeLa, 50 ng/mL, 16 hrs, control for mitotic arrest
Protocol: HeLa cells were collected after trypsinization and lysed with RIPA buffer. Equal amount of proteins (30 μg/lane) were loaded, separated by 15% SDS-PAGE. After blocking with blocking buffer for 2 hrs at RT, the membrane was incubated with the following primary antibodies diluted in blocking buffer overnight at 4°C: anti-hPlk1 mouse monoclonal antibody (Cat# P5998; Sigma; 1:3000), anti-CyclinB1 rabbit polyclonal antibody (Cat# SAB4503501; Sigma; 1:2000), anti-pHH3 rabbit monoclonal antibody (Cat# 04-817; Millipore; 1:2000), anti-GAPDH rabbit polyclonal antibody (Cat# P30008; Abmart; 1:2000). The membrane was washed 3 times and then incubated with Horseradish Peroxidase-conjugated secondary antibodies for 1 hr at RT and visualized with ECL system (Millipore). The level of GAPDH was used as the loading control.

[2] = molecular target: T1, Plk2 PBD (Homo sapiens, UniProt Q9NYY3); test: Fluorescence polarization assay, Plk2 PBD / FITC-labeled phosphopeptide; type: binding; conditions: FP assay, 1 hr preincubation at RT, read-out: Apparent IC50
T1 construct: (326-603 aa), Plk2 (355-685 aa), and Plk3 (335-646 aa); GST (N); made in house; host or cells: E. coli Rosetta BL21(DE3)
T1 sequence (Q9NYY3 355-685): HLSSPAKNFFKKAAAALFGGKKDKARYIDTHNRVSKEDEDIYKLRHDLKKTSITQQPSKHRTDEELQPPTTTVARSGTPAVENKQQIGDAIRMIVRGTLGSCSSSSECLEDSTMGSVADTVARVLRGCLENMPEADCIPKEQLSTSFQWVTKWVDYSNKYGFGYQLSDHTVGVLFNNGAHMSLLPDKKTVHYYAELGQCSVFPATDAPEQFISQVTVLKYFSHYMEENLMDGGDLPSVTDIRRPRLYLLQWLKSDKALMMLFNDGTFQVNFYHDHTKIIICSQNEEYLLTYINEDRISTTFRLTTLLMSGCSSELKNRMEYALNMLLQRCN
Protocol: FP assay was performed as follow. Briefly, 30 μL Plk1 PBD proteins (400 nM) were incubated with 0.3 μL tested compounds (1 mg/mL) with shaking for 1 hr at room temperature (RT) prior to addition of 30 μL FITC-Poloboxtide (FITC-GPMQSpTPLNG-OH; λex/λem: 485/535 nm; 60 nM) in FP buffer (50 mM Tris-HCl, 10 mM NaCl, 1 mM EDTA pH8.0). Three wells containing 30 μL FITC-Poloboxtide (60 nM) and 30 μL Plk1 PBD (400 nM) were used as negative control (0% inhibition); three wells containing 60 μL FITC-Poloboxtide (30 nM) only were used as positive control (100% inhibition). Fluorescence polarization was analyzed after incubation of FITC-Poloboxtide for 15 min in a 384-well black opaque microplate (Cat# 6007270, PerkinElmer) using Envision Multilabel Reader (PerkinElmer) at 25°C. We calculated the percentage of inhibition for each sample as follows: Inhibition(%)=Negative−Sample/Negative−Positive×100%
We plotted the inhibition values and determined IC50 using GraphPad Prism5.0. Together with the FITC-labeled peptides used for Plk1 PBD as mentioned above, the following peptides were used for specificity assays, FITC-GPMQTSpTPKNG-OH (Plk2 PBD), FITC-GPLATSpTPKNG-OH (Plk3 PBD). As described above for the FP assay, proteins were used at the following final concentrations: Plk1 PBD, 200 nM; Plk2 PBD, 450 nM; Plk3 PBD, 600 nM. All FITC-labeled peptides were chemically synthesized (China Peptides Co., Ltd., Shanghai) and further verified by mass spectrometry, and the purity is more than 95.0%.

[3] = molecular target: T2, Plk3 PBD (Homo sapiens, UniProt Q9H4B4); test: Fluorescence polarization assay, Plk3 PBD / FITC-labeled phosphopeptide; type: binding
T2 construct: (326-603 aa), Plk2 (355-685 aa), and Plk3 (335-646 aa); GST (N); made in house; host or cells: E. coli Rosetta BL21(DE3)
T2 sequence (Q9H4B4 335-646): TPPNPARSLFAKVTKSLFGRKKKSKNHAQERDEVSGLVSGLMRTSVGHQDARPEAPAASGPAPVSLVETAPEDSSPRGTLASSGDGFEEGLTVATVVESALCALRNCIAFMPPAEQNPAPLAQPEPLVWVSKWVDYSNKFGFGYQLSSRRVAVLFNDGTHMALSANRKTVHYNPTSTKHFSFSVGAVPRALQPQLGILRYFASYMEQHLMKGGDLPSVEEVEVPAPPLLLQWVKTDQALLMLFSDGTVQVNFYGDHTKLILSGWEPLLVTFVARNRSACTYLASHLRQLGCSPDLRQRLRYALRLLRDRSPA
Protocol: FP assay was performed as follow. […] We calculated the percentage of inhibition for each sample as follows: Inhibition(%)=Negative−Sample/Negative−Positive×100%
We plotted the inhibition values and determined IC50 using GraphPad Prism5.0. Together with the FITC-labeled peptides used for Plk1 PBD as mentioned above, the following peptides were used for specificity assays, FITC-GPMQTSpTPKNG-OH (Plk2 PBD), FITC-GPLATSpTPKNG-OH (Plk3 PBD).

COC(=O)Nc1nc2ccc(C(=O)c3cccs3)cc2[nH]1 [Nocodazole, reference compound]
mitotic markers (Plk1, Cyclin B1, pHH-3) protein levels [1]: increase of protein levels

CC1=CC(=O)C(C(C)C)=C/C1=N/OC(=O)c1ccccc1C [Poloxin, reference compound]
IC50 [2]: 15.6 ± 2.26 µM

CC1=CC(=O)C(C(C)C)=CC1=O [TQ, Thymoquinone, reference compound]
IC50 [3]: 18.9 ± 1.32 µM
IC50 [2]: 3.65 ± 0.96 µM
